Test results from patent US8063225B2, “Tricyclic compound derivatives useful in the treatment of neoplastic diseases, inflammatory disorders and immunomodulatory disorders” (Chembridge Corporation, priority 2006, dated 2011).

Key:
[1] = target: T1, InsR (Homo sapiens, UniProt P06213); experiment: Tyrosine kinase assay (Kinase-Glo or AlphaScreen), InsR; details: biochemical tyrosine kinase assay
T1 construct: 6×His- or GST-tagged kinase domain fragments of the corresponding RTKs expressed in baculovirus system; host or cells: baculovirus system
T1 sequence (P06213 1023-1298 limits assumed, species assumed): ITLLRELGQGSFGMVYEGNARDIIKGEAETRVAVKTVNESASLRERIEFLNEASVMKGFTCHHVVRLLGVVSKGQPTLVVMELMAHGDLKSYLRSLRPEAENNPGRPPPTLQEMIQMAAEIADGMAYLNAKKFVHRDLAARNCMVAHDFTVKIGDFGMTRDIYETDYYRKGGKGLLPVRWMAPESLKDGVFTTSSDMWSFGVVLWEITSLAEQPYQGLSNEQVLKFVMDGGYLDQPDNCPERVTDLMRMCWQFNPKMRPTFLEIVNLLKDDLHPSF
Method: (§1) To determine inhibition of several tyrosine kinases, such as IGF1R, InsR, Alk, TrkA and Jak2, kinase assays are conducted using either Kinase-Glo (Promega) or AlphaScreen (PerkinElmer) kinase assay platforms. The Kinase-Glo Luminescent Kinase Assay is a homogeneous method for measuring kinase activity by determining the amount of ATP remaining after a kinase reaction. The luminescent signal is proportional to the amount of ATP and inversely proportional to the amount of kinase activity. Tyrosine kinase PT66 AlphaScreen Assay is a high-sensitivity homogeneous, anti-phosphotyrosine antibody-mediated luminescent proximity method measuring, incorporation of phosphate in synthetic poly(Glu-Tyr) substrate. The kinase preparations used consist of purified recombinant, 6×His- or GST-tagged kinase domain fragments of the corresponding RTKs expressed in baculovirus system.
(§2) The IGF1R tyrosine kinase is assayed in Kinase-Glo ATP depletion assay using the synthetic polymer poly(Glu-Tyr, 4:1) (Sigma Chemicals) as a phosphoacceptor substrate. Each reaction mixture consists of a total volume of 10 μl and contains 40 ng of the enzyme, 5 μg of poly(Glu-Tyr), 10 μM of ATP and variable concentrations of test compounds. The mixtures also contain 50 mM Tris-HCl, pH 7.5; 5 mM MgCl2; 5 mM MnCl2; 2 mM DTT and 0.01% Tween 20. The reaction mixtures are incubated at 37° C. for 60 minutes and residual concentration of ATP in the mixture is determined by adding luciferase-containing Kinase-Glo (Promega) development reagent and counting luminescence levels using Fusion Universal Microplate Analyzer (PerkinElmer). Tested compounds are dissolved in dimethyl sulfoxide to a stock concentration of 10 mM and are typically evaluated in the assay at eight concentrations in 1 nM to 20 μM range, each in quadruplicate. […] IC50 values are derived by non-linear regression analysis using Prism 3.0 software (Graphpad Software). Other tyrosine kinases are assayed according to the same protocol after titrating amount of the enzyme to provide optimal signal-to-noise ratio and no more than 30% of total ATP consumption in the reaction conditions used.
(§3) The IGF1R tyrosine kinase is assayed in Phosphotyrosine (PT66 or PT 100) AlphaScreen chemiluminescent assay (PerkinElmer) according to the manufacturerer's recommendations. Each kinase reaction mixture consists of a total volume of 15 μl and contains 0.1-1 ng of the enzyme, 7 ng of biotinylated poly(Glu-Tyr) (Cis-Bio), 10 μM of ATP and variable concentrations of test compounds. The mixtures also contain 50 mM Tris-HCl, pH 7.5; 5 mM MgCl2; 5 mM MnCl2; 2 mM DTT and 0.01% Tween 20. The reaction mixtures are incubated at room temperature for 30 minutes. Ten (10) μl of the mixture of […] and donor beads (as supplied by the manufacturer) is then added to the reaction and the incubation is continued for an additional 60 minutes.

[2] = target: T2, Jak2 (Homo sapiens, UniProt O60674); experiment: Tyrosine kinase assay (Kinase-Glo or AlphaScreen), Jak2; details: biochemical tyrosine kinase assay
T2 construct: 6×His- or GST-tagged kinase domain fragments of the corresponding RTKs expressed in baculovirus system; host or cells: baculovirus system
T2 sequence (O60674 849-1124 limits assumed, species assumed): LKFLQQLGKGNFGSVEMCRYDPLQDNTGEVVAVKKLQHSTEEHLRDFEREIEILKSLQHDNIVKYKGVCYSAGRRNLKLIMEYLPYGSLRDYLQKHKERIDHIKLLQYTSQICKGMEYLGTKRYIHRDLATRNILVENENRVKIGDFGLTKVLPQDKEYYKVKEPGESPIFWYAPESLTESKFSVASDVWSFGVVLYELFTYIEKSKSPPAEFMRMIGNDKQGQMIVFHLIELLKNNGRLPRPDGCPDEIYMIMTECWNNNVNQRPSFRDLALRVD
Method: as §1, §2, §3

[3] = target: T3, Alk (Homo sapiens, UniProt Q9UM73); experiment: Tyrosine kinase assay (Kinase-Glo or AlphaScreen), Alk; details: biochemical tyrosine kinase assay
T3 construct: 6×His- or GST-tagged kinase domain fragments of the corresponding RTKs expressed in baculovirus system; host or cells: baculovirus system
T3 sequence (Q9UM73 1116-1392 limits assumed, species assumed): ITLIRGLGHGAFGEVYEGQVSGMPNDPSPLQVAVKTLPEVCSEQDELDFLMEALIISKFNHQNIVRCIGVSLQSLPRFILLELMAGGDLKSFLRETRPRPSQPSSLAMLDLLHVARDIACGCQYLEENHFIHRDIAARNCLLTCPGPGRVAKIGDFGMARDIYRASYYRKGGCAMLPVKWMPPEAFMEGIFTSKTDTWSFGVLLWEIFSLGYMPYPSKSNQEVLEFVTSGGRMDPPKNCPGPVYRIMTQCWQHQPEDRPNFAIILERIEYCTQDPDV
Method: as §1, §2, §3

[4] = system: K562; experiment: Cell proliferation inhibition, Cell Titer-Glo, K562; type: cell-based; details: Homo sapiens; cell proliferation assay, K562 cells
Text: (§4) IGF1R and other tyrosine kinase inhibitors can inhibit the proliferation of certain cancer cell lines indicating their possible therapeutic utility for treating the corresponding cancer types. Cancer cell lines of interest and control normal lines, including CHO, HEK293, BA/F3, COLO205, PC3, DU145, MCF7, Panc1, ACHN, Hep G2, H460, K562, TT, U87-MG, CAOV-3, SK-MEL5, Karpas 299 and human multiple myeloma cell lines H929, MM1s, MM1r, UTMC2, CPM2, KMS11, My5, KMS12PE, My7, JJN3, KMS18, U266, SKMM2, RPMI-8226 are plated in white, clear-bottomed 384-well cell culture plates at 2500-5000 cells per well and supplied with dilutions of tested compounds After a desired period of time (typically 3 days), the number of viable cells is quantitated by using Cell Titer-Glo Luminescent Cell Viability Assay (Promega), a cell proliferation assay system based on detection of total amount of ATP present as a measure of cell metabolic activity. The plated cells are mixed with the Cell Titer-Glo developing reagent and counted in a luminescence multiwell plate reader according to the standard manufacturer's protocol to generate IC50 curves for cell proliferation inhibition. Results are typically reported as percent of growth (% viability =(OD72h(compound)−ODday0))/(OD72h(no compound)−ODday0). Alternatively, viable cells are quantitated by using the conventional colorimetric MTT assay. The MTT assay is based on the cleavage of the yellow tetrazolium salt MTT to purple formazan crystal by metabolic active cells. The formazan is then solubilized, and the concentration determined by optical density at 570 nm. The cells plated and incubated with a compound as described above are supplemented with the solution of MTT and incubated for 2-3 hours. The growth medium is removed and dimethyl sulfoxide is added into each well to dissolve the formazan. The absorbance is measured on an ELISA plate reader with a test wavelength of 570 nm and a background subtraction wavelength of 630 nm to obtain sample signal (OD570-OD630). […] The results are reported in terms of IC50 value for a particular compound and a cell line in the standard 3-day proliferation assay using Cell Titer-Glo. […] The results are reported in terms of IC50 value for a particular compound and a cell line in the standard 3-day proliferation assay using MTT assay.

[5] = system: Ba/F3; experiment: Cell proliferation inhibition, Cell Titer-Glo, Ba/F3; type: cell-based; details: Mus musculus, BaF3; cell proliferation assay, Ba/F3 cells
Text: as §4

[6] = system: Karpas-299; experiment: Cell proliferation inhibition, Cell Titer-Glo, Karpas-299; type: cell-based; details: Homo sapiens; cell proliferation assay, Karpas-299 cells
Text: as §4

[7] = target: T4, IGF1R tyrosine kinase (Homo sapiens, UniProt P08069); experiment: IGF1R tyrosine kinase assay (Kinase-Glo ATP depletion or PT66/PT100 AlphaScreen); details: biochemical tyrosine kinase assay
T4 construct: 6×His- or GST-tagged kinase domain fragments of the corresponding RTKs expressed in baculovirus system; host or cells: baculovirus system
T4 sequence (P08069 999-1274 limits assumed): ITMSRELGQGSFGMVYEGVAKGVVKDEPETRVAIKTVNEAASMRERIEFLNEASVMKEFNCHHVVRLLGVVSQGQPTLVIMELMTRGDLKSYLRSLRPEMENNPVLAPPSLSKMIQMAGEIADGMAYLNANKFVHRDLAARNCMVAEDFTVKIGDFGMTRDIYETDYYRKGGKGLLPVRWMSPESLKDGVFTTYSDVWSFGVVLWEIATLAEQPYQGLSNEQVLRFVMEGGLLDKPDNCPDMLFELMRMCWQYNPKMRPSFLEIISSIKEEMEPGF
Method: as §1, §2, §3

Compound | IC50 [1] [µM] | IC50 [2] [µM] | IC50 [3] [µM] | IC50 [4] [µM] | IC50 [5] [µM] | IC50 [6] [µM] | IC50 [7] [µM]
CN1CCC(N2C(=O)c3cc4nc(-c5c(NC[C@@H](O)Cn6cnc7ccccc76)ccnc5O)[nH]c4cc3C2=O)CC1 [compound 49] | 0.5 to 5 | 0.5 to 5 | 0.5 to 5 | > 15 | > 15 | > 15 | 0.5 to 5
CN(C)CC(C)(C)CN1C(=O)c2cc3nc(-c4c(NCC(O)COc5cccc(Cl)c5)ccnc4O)[nH]c3cc2C1=O (stereo not drawn) [compound 61] | 5 to 15 | 5 to 15 | > 15 | > 15 | > 15 | > 15 | 0.5 to 5
CN1CCC(N2C(=O)c3cc4nc(-c5c(NC[C@@H](O)COc6ccc7c(c6)OCO7)ccnc5O)[nH]c4cc3C2=O)CC1 [compound 78] | 0.5 to 5 | 0.5 to 5 | 0.5 to 5 | 5 to 15 | > 15 | 5 to 15 | < 0.5
Cc1ccc(OC[C@H](O)CNc2ccnc(O)c2-c2nc3cc4c(cc3[nH]2)C(=O)N([C@@H]2CCCN(C)C2)C4=O)c(C)c1 [compound 102] | 5 to 15 | > 15 | > 15 | > 15 | > 15 | 5 to 15 | < 0.5
COc1ccc2c(c1)cc(C)n2C[C@H](O)CNc1ccnc(O)c1-c1nc2cc3c(cc2[nH]1)C(=O)N(C1CCN(C)CC1)C3=O [compound 100] | 0.5 to 5 | 0.5 to 5 | < 0.5 | 5 to 15 | > 15 | 5 to 15 | 0.5 to 5
CN1CCC(N2C(=O)c3cc4nc(-c5c(NC[C@@H](O)COc6cccc7c6OC(F)C(F)(F)O7)cc[nH]c5=O)[nH]c4cc3C2=O)CC1 (stereo partly drawn) [compound 82] | 0.5 to 5 | 0.5 to 5 | 0.5 to 5 | > 15 | > 15 | > 15 | < 0.5
Cc1ccc(OC[C@H](O)CNc2cc[nH]c(=O)c2-c2nc3cc4c(cc3[nH]2)C(=O)N(C2CCN(C)CC2)C4=O)c(C(C)(C)C)c1 [compound 80] | 5 to 15 | 5 to 15 | 0.5 to 5 | 5 to 15 | > 15 | 5 to 15 | 0.5 to 5
Cc1ccc(OC[C@H](O)CNc2ccnc(O)c2-c2nc3cc4c(cc3[nH]2)C(=O)N(C2CCN(C)CC2)C4=O)c2c1CCC2 [compound 85] | < 0.5 | 0.5 to 5 | 0.5 to 5 | 0.5 to 5 | 0.5 to 5 | 0.5 to 5 | < 0.5
CN1CCC(N2C(=O)c3cc4nc(-c5c(NC[C@@H](O)COc6cccc(Cl)c6)ccnc5O)[nH]c4cc3C2=O)CC1 [compound 75] | 0.5 to 5 | 0.5 to 5 | 0.5 to 5 | 0.5 to 5 | 0.5 to 5 | 0.5 to 5 | 0.5 to 5
